Source: publication PMC9718554, “Discovery of a fragment hit compound targeting D-Ala:D-Ala ligase of bacterial peptidoglycan biosynthesis” (Journal of Enzyme Inhibition and Medicinal Chemistry, 2022)
Read-outs that look alike come from different tables or passages of the source.

Target: T1, E. coli DdlB enzyme (D-alanine:D-alanine ligase) (Escherichia coli, UniProt P07862)
T1 construct: made in house; host or cells: E. coli
Assay: biochemical
Details: for remaining activity at 2700 µM: tested concentration 2.7 mM; for remaining activity at 1800 µM: tested concentration 1.8 mM; for remaining activity at 1900 µM: tested concentration 1.9 mM; for remaining activity at 2300 µM: tested concentration 2.3 mM; for remaining activity at 1700 µM: tested concentration 1.7 mM; for remaining activity at 2000 µM: tested concentration 2.0 mM; for remaining activity at 3000 µM: tested concentration 3.0 mM; for remaining activity at 2800 µM: tested concentration 2.8 mM; for remaining activity at 2200 µM: tested concentration 2.2 mM; for remaining activity at 2400 µM: tested concentration 2.4 mM; for remaining activity at 2100 µM: tested concentration 2.1 mM; for remaining activity at 2600 µM: tested concentration 2.6 mM

[1] = tested concentration 2.5 mM, read-out: DdlB RA
[2] = fragment library screening, read-out: DdlB RA
[3] = residual activity of DdlB, fragment library screening, tested concentration 2.5 mM, read-out: DdlB RA
[4] = residual activity, read-out: DdlB RA
[5] = residual activity of DdlB, fragment library screening, read-out: DdlB RA

O=C(O)C1C2CCC(C2)C1C(=O)NC1CC1 (stereo not shown) [Compound Y205-0716]
remaining activity at 2700 µM (read-out: DdlB RA): 93%

Cc1ccc(S(N)(=O)=O)cc1C(=O)NCC(C)C [Compound Y050-1744]
remaining activity at 1800 µM (read-out: DdlB RA): 83%

Nc1ccc2ncc(C(=O)O)c(O)c2c1 [Compound 8020-1815]
remaining activity at 2500 µM [1]: 42%

O=C(Nc1cccc(F)c1)[C@H]1CCCC[C@H]1C(=O)O [Compound Y203-6612]
remaining activity at 1900 µM [2]: 93%

Oc1cccc(-c2ccccc2)c1 [FLD076]
remaining activity at 2500 µM [3]: 98%

Cc1c(Br)c(C(=O)O)nn1C [Compound Y501-6296]
remaining activity at 2300 µM [4]: 107%

NS(=O)(=O)c1ccc(NC(=O)CCn2cnnn2)cc1 [Compound 8017-4431]
remaining activity at 1700 µM (read-out: DdlB RA): 99%

CCCNC(=O)N1CCC2(CCC(=O)N(C)CC2)CC1 [Compound S509-1557]
remaining activity at 2000 µM [4]: 98%

CC(C)n1ncc(C(N)=O)c1N [Compound 8014-2120]
remaining activity at 3000 µM [5]: 92%

O=C(O)c1ccc(-n2ccnc2)cc1 [FLD020]
remaining activity at 2500 µM [3]: 96%

O=C(Nc1cccnc1)[C@H]1CCCC[C@H]1C(=O)O [Compound Y203-7528]
remaining activity at 2000 µM [2]: 91%

O=C1CNC(=S)N1 [FLD022]
remaining activity at 2500 µM [3]: 98%

COC(=O)c1nnn(-c2ccccc2)c1O [Compound 8017-3559]
remaining activity at 2300 µM (read-out: DdlB RA): 104%

Cc1cccc(C2SC(C)C(=O)N2CC(=O)N(C)C)c1 (stereo not shown) [Compound V017-7801]
remaining activity at 1700 µM (read-out: DdlB RA): 98%

O=C(C1CCCN(C(=O)C2CCC2)C1)N1CCOCC1 (stereo not shown) [Compound P773-6398]
remaining activity at 2000 µM [4]: 98%

N#CCC(=O)N(c1ccccc1)c1ccccc1 [Compound Y204-3664]
remaining activity at 2500 µM [1]: 89%

O=c1cc(N2CCOCC2)cn[nH]1 [FF20-1495]
remaining activity at 3000 µM [5]: 88%

Clc1ccc(Cl)nn1 [FLD095]
remaining activity at 2500 µM [3]: 98%

O=C1NC(C(=O)O)Cn2cccc21 (stereo not shown) [Compound S531-0139]
remaining activity at 2800 µM (read-out: DdlB RA): 90%

C=CCn1c(N2CCC(C(=O)O)CC2)nc2ccccc21 [Compound D264-0028]
remaining activity at 1800 µM [2]: 86%

CCn1cnnc1CC1CCNC1 (stereo not shown) [Compound P936-0678]
remaining activity at 3300 µM (residual activity of DdlB, fragment library screening, tested concentration 3.3 mM, read-out: DdlB RA): 90%

O=C(O)c1ccc(CN2CCCCC2)cc1 [FLD056]
remaining activity at 2500 µM [3]: 100%

CCN1CCN(c2ccc(NC(C)=O)c(C(=O)O)c2)CC1 [Compound F687-0683]
remaining activity at 1700 µM [4]: 94%

O=C(O)c1cccn2c(=O)c3cc(Cl)ccc3nc12 [Compound C200-9602]
remaining activity at 1800 µM [4]: 78%

CC(=O)Nc1ccc2c(C)cc(C)nc2n1 [Compound 8006-1575]
remaining activity at 2300 µM (read-out: DdlB RA): 97%

Nc1ccc(Br)cn1 [FLD145]
remaining activity at 2500 µM [3]: 92%

Cn1nc(CCC(=O)NC2CCCC2)c2c1CCOC2 [SD48-0064]
remaining activity at 2200 µM [4]: 102%

CC1CCCCC1NS(=O)(=O)c1ccccc1 (stereo not shown) [Compound Y206-4071]
remaining activity at 2200 µM (read-out: DdlB RA): 91%

O=C(O)Cc1c(Cl)cccc1Cl [FLD156]
remaining activity at 2500 µM [3]: 100%

CC1CC(C)(C)Nc2c(C(=O)O)cccc21 (stereo not shown) [Compound Y021-0767]
remaining activity at 2300 µM [4]: 97%

COc1ccc(C(O)(C(=O)O)C(F)(F)F)cc1OC (stereo not shown) [Compound 8013-2786]
remaining activity at 1800 µM [4]: 94%

CC(=O)c1ccc([N+](=O)[O-])cc1 [FLD015]
remaining activity at 2500 µM [3]: 100%

Cc1ccc2nc3c(C(=O)O)cccn3c(=O)c2c1 [Compound C200-9601]
remaining activity at 2000 µM [4]: 75%

O=C(NCc1ccccc1)C1(F)CCNC1 (stereo not shown) [SA94-0001]
remaining activity at 1900 µM (read-out: DdlB RA): 97%

NCCCN1CCCC1=O [FF01-3614]
remaining activity at 4200 µM (residual activity of DdlB, fragment library screening, tested concentration 4.2 mM, read-out: DdlB RA): 90%

CCc1nc2ccc(C(N)=O)cc2nc1CC [Compound Z601-0869]
remaining activity at 2400 µM (read-out: DdlB RA): 88%

CC#CC(=O)N(C)CCc1cn[nH]c1 [Compound T001-1282]
remaining activity at 2900 µM (tested concentration 2.9 mM, read-out: DdlB RA): 86%

C1CNCC(CCc2noc(C3CCOCC3)n2)C1 (stereo not shown) [SA66-1056]
remaining activity at 1800 µM [4]: 94%

Nc1ccc(-c2ccc(N)cc2)cc1 [FLD069]
remaining activity at 2500 µM [3]: 70%

CC1=NCCC1 [FLD186]
remaining activity at 2500 µM [3]: 71%

CCS(=O)(=O)N1CCC(C(=O)N2CCCCC2)CC1 [Compound Y050-2528]
remaining activity at 2100 µM [4]: 97%

CC(C)n1nnc2cc(C(N)=O)ccc21 [Compound Z606-2126]
remaining activity at 2400 µM (read-out: DdlB RA): 92%

c1cnc2c(c1)ccc1cccnc12 [FLD040]
remaining activity at 2500 µM [3]: 74%

CC(C)C(=O)Nc1ccc(Cl)cc1C(=O)O [Compound 8012-2055]
remaining activity at 2100 µM [4]: 110%

O=C(Nc1nnc[nH]1)C1CCC1 [Compound P774-4606]
remaining activity at 3000 µM [5]: 94%

C#CC(=O)NC(C)c1c(C)nn(C)c1C (stereo not shown) [Compound T001-1381]
remaining activity at 2400 µM (read-out: DdlB RA): 87%

O=C(O)c1cnn2c(-c3ccc4c(c3)OCO4)ccnc12 [Compound 14, 7-(Benzo[d][1,3]dioxol-5-yl)pyrazolo[1,5-a]pyrimidine-3-carboxylic acid]
remaining activity at 500 µM (at 0.5 mM, read-out: DdlB inhibition, RA (Residual Activity)): 100%

O=C(Nc1ccccc1C(=O)O)c1ccccc1Cl [Compound 0342-0148]
remaining activity at 1800 µM [4]: 111%

NCc1ccccc1Cl [FLD174]
remaining activity at 2500 µM [3]: 100%

COc1ccc(CNc2ccccc2C(=O)O)cc1 [Compound K783-0843]
remaining activity at 1900 µM [4]: 101%

[C-]#[N+]CS(=O)(=O)c1ccc(C)cc1 [FLD035]
remaining activity at 2500 µM (read-out: DdlB RA): 100%

NCCNC(=O)c1nonc1N [Compound 8006-0101]
remaining activity at 3200 µM (residual activity of DdlB, fragment library screening, tested concentration 3.2 mM, read-out: DdlB RA): 93%

Nc1cccc2cccc(S(=O)(=O)O)c12 [Compound 1091-0114]
remaining activity at 2200 µM (read-out: DdlB RA): 81%

Oc1cc(-c2cccnc2)n[nH]1 [Compound 8018-0078]
remaining activity at 3100 µM (tested concentration 3.1 mM, read-out: DdlB RA): 91%

Nc1ccc2c(c1)[C@@H](O)C[C@@H](C(F)(F)F)O2 [Compound 8018-8746]
remaining activity at 2600 µM (read-out: DdlB RA): 98%

CCS(=O)(=O)N1CCCN(C(=O)C2CC2)CC1 [Compound Z603-0719]
remaining activity at 2300 µM (read-out: DdlB RA): 98%

O=[N+]([O-])c1ccc(O)c(Cl)c1 [FLD092]
remaining activity at 2500 µM [3]: 97%

CCc1c(C)nn(-c2nnn[nH]2)c1O [Compound 8019-0165]
remaining activity at 2600 µM (read-out: DdlB RA): 76%

O=C(Cc1n[nH]c(-c2cccnc2)n1)NCC1CCCO1 (stereo not shown) [Compound 8019-9738]
remaining activity at 1700 µM [4]: 94%

O=C1Cn2nnc(CNC(=O)NC3CCCC3)c2CN1 [SC45-0107]
remaining activity at 2200 µM [4]: 93%

O=S(=O)(O)CCN1CCOCC1 [Compound 0083-0027]
remaining activity at 2600 µM (read-out: DdlB RA): 91%

O=c1c(O)c(NCCc2ccccc2)c1=O [Compound G317-0516]
remaining activity at 2300 µM (read-out: DdlB RA): 92%

Cc1ccc2nc(C)c(CN3CCCCC3C)c(O)c2c1 (stereo not shown) [Compound 4300-0248]
remaining activity at 1800 µM [4]: 87%

CN1CCCCC(CC(=O)O)C1=O (stereo not shown) [Compound S581-1125]
remaining activity at 2700 µM (read-out: DdlB RA): 95%

Cc1ccc(CNC(=O)C2Cn3cccc3C(=O)N2C)o1 (stereo not shown) [Compound S531-0187]
remaining activity at 1700 µM [4]: 92%

O=C1Cc2cc([N+](=O)[O-])ccc2N1 [FLD155]
remaining activity at 2500 µM [3]: 99%

CC(C)(C)OC(=O)n1c(B(O)O)cc2ccccc21 [Compound 8018-6383]
remaining activity at 1900 µM (read-out: DdlB RA): 75%

NS(=O)(=O)c1ccc2c(c1)CCN2 [Compound 8018-8673]
remaining activity at 2500 µM [1]: 80%

CC(=O)c1cc2c(cc1C)NC(C)(C)CC2C (stereo not shown) [Compound Y021-0953]
remaining activity at 2400 µM (read-out: DdlB RA): 97%

O=C(O)c1cc(-c2ccc3c(c2)OCO3)on1 [Compound R314-0020]
remaining activity at 2100 µM [4]: 114%

O=C(O)Cc1cccnc1 [FLD083]
remaining activity at 2500 µM [3]: 98%

Cc1cc(C)[nH]n1 [FLD130]
remaining activity at 2500 µM [3]: 100%

CCOC(=O)C(C#N)c1ccccc1 (stereo not shown) [FLD181]
remaining activity at 2500 µM [3]: 89%

Cc1cc(C)n(CCO)c(=O)n1 [Compound 8012-5852]
remaining activity at 2400 µM [5]: 94%

COC(=O)N1C2C=CC(C2)C1(C(F)(F)F)C(F)(F)F (stereo not shown) [Compound 8007-6774]
remaining activity at 2100 µM [4]: 89%

Cn1nnc(-c2ccc(C(=O)O)c(N)c2)n1 [Compound 8019-8673]
remaining activity at 2300 µM [4]: 115%

CCOc1ccc(O)cc1 [FLD099]
remaining activity at 2500 µM [3]: 100%

NS(=O)(=O)c1ccc(NC(=O)CCC2CCCC2)cc1 [Compound Y204-2561]
remaining activity at 1700 µM (read-out: DdlB RA): 87%

O=c1[nH]c2cc(S(=O)(=O)N3CCCCC3)ccc2o1 [Compound 8013-5568]
remaining activity at 1800 µM (read-out: DdlB RA): 103%

O=S(=O)(O)c1ccc2cccc(O)c2n1 [Compound 8009-2146]
remaining activity at 2200 µM (read-out: DdlB RA): 96%

O=C(Nc1ccc(Cl)cc1)Nc1ccccc1C(=O)O [Compound Y020-0051]
remaining activity at 1700 µM [4]: 119%

N=C1NC(=O)CS1 [FLD059]
remaining activity at 2500 µM [3]: 99%

CSCCC(C(=O)O)N1C(=O)NC2NC(=O)NC21 (stereo not shown) [Compound 8011-2492]
remaining activity at 1800 µM (read-out: DdlB RA): 95%

Oc1nc(-c2ccc(F)cc2)no1 [Compound C066-5406]
remaining activity at 2800 µM (read-out: DdlB RA): 97%

CCC([N+](=O)[O-])C1(O)C(=O)Nc2ccccc21 (stereo not shown) [Compound 3817-0017]
remaining activity at 2100 µM [4]: 95%
